Measured values: patent US9169502B2, “Method of producing L-lysine using a Corynebacterium glutamicum microorganism” (Paik Kwang Industrial Co., Ltd., priority 2010, dated 2015)
Like-named read-outs stand apart in the source and are kept apart here.

Key:
[1] = molecular target: T1, Corynebacterium glutamicum glucose 6-phosphate dehydrogenase (G6PDH, zwf), wild type (Corynebacterium glutamicum, UniProt Q8NQ63); assay: Kinetic characterization of wild type G6P dehydrogenase (Michaelis-Menten constants and inhibition by metabolites); format: biochemical; conditions: relative to the activity without addition (100%)
T1 sequence (Q8NQ63 1-484): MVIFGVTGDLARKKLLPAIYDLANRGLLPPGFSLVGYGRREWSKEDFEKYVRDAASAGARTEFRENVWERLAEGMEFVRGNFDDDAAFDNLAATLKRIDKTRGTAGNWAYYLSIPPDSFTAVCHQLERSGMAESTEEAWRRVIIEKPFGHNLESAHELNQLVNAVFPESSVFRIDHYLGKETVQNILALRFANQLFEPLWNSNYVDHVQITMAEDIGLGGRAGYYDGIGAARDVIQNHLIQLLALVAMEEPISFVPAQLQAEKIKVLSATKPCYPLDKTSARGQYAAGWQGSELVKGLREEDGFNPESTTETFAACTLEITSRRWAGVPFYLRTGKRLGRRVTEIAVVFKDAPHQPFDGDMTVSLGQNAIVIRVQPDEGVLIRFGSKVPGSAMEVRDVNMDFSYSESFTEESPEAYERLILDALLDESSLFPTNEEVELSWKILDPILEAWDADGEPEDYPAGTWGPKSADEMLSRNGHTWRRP
T1 sequence (Q8NQ62 1-319 partner): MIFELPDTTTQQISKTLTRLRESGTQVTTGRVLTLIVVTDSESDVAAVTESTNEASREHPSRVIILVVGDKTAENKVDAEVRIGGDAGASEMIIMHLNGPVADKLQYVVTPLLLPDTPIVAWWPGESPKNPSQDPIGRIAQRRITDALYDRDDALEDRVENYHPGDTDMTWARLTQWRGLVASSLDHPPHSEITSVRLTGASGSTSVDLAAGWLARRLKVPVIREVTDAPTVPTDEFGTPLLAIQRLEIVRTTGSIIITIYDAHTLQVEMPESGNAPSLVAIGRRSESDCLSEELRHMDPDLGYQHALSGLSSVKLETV
Method: (§1) In the exponential growth phase, cells were harvested by centrifugation (5 min, 9800×g, Biofuge stratos, Heraeus, Hanau, Germany), washed once with disruption buffer and finally suspended to 0.25 g CWW per mL. Disruption was performed by sonication (MSE soniprep 150, Sanyo Europe, Munich, Germany) in a ice-water-bath with five 15 sec pulses at 20 microns, or mechanically. To this end, cell suspension was aliquoted in 750 μl amounts in 2 mL Eppendorf tubes containing glass beads. Disruption was performed in a ribolyser (MM301, Retsch, Haan, Germany) at 30 Hz (2×5 min; 5 minutes break in between). Crude cell extracts were obtained by centrifugation for 10 minutes at 13000 rpm (Biofuge fresco, Heraeus, Hanau, Germany) for ribolyser disruption or 2×30 min at 8500 rpm (Biofuge stratos, Heraeus, Hanau, Germany) for disruption by sonication. Protein content was determined by the method of Bradford (Bradford, 1976) with a reagent solution from BioRad (Quick Start Bradford Dye, BioRad, Hercules, USA) and a BSA protein standard.
All measurements were performed as triplicates in a total volume of 1 mL by online monitoring of the change in absorbance in a photospectrometer (Specord 40, Analytik Jena, Jena, Germany or Helios alpha, Thermo Scientific, Waltham, USA). […] Activities are given as specific enzyme activity [U mg^−1] with 1 U=1 μmol min^−1 at 30° C. and calculated from the change in absorbance [A min^−1] and a specific extinction coefficient of ε340=6.22 L mmol^−1 cm^−1 for NAD(P)H. As a general procedure, a master mix without substrate and cell extract was prepared from the stock solutions for the reaction buffer, MgCl2, Co-factors (NADP, NAD, NADH, ADP, TPP, CoA) and coupling enzymes (LDH, G6PDH, PGI, ribose 5-phosphate isomerase (RPI), ribulose 5-phosphate epimerase (RPE), TPI/GDH) and incubated for 10 min at 30° C. […]
Cell disruption was performed in a buffer containing 100 mM Tris/HCl (pH 7.5), 10 mM MgCl2 and 0.75 mM DTT. […] Due to instability of the enzyme, the activity was measured immediately after cell disruption. […]

[2] = molecular target: T2, Corynebacterium glutamicum glucose 6-phosphate dehydrogenase (G6PDH, zwf), variant A243T (Corynebacterium glutamicum, UniProt Q8NQ63); assay: Kinetic characterization of A243T-variant of G6P dehydrogenase (Michaelis-Menten constants and inhibition by metabolites); format: biochemical; conditions: for Km: A243T mutant, cell extracts from cells grown on minimal medium with glucose, 30° C., pH 7.8
T2 construct: grown on glucose minimal medium
Method: as §1
All measurements were performed as triplicates in a total volume of 1 mL by online monitoring of the change in absorbance in a photospectrometer (Specord 40, Analytik Jena, Jena, Germany or Helios alpha, Thermo Scientific, Waltham, USA). Negative controls were carried out without substrate or cell extract, respectively. Activities are given as specific enzyme activity [U mg^−1] with 1 U=1 μmol min^−1 at 30° C. and calculated from the change in absorbance [A min^−1] and a specific extinction coefficient of ε340=6.22 L mmol^−1 cm^−1 for NAD(P)H. As a general procedure, a master mix without substrate and cell extract was prepared from the stock solutions for the reaction buffer, MgCl2, Co-factors (NADP, NAD, NADH, ADP, TPP, CoA) and coupling enzymes (LDH, G6PDH, PGI, ribose 5-phosphate isomerase (RPI), ribulose 5-phosphate epimerase (RPE), TPI/GDH) and incubated for 10 min at 30° C. Substrate solution and cell extract were provided in 1.5 mL polystyrene cuvettes (Plastibrand, Wertheim, Germany). The reaction was started by quick addition of the master mix.
Cell disruption was performed in a buffer containing 100 mM Tris/HCl (pH 7.5), 10 mM MgCl2 and 0.75 mM DTT. DTT was prepared freshly as 100 mM stock solution and added to the cell suspension before disruption. Due to instability of the enzyme, the activity was measured immediately after cell disruption. The reaction mix for quantification of the G6P dehydrogenase activity contained 100 mM Tris/HCl (pH 7.8), 200 mM KCl, 1 mM NADP, 10 mM MgCl2, 5 mM G6P and 50 μl cell extract. Michaelis-Menten affinity constants were determined by varying the concentrations of the substrates, G6P or NADP, respectively. To test the influence of effectors on activity, the reaction mix was additionally supplemented with ATP, PEP, FBP or NADPH in varied concentrations.

[3] = system: Corynebacterium glutamicum diaminopimelate dehydrogenase (DDH), SEQ ID NO: 6; conditions: Wehrmann, et al., 1998; read-out: km value towards ammonium; cited from earlier work

For O=P(O)(O)OC[C@H]1OC(O)(COP(=O)(O)O)[C@@H](O)[C@@H]1O (stereo partly shown) [FBP, Fructose 1,6-bisphosphate], the inhibition at 5000 µM ([1]; 5 mM FBP, read-out: Inhibition by metabolites (Remaining Activity), FBP) was 84.4% and the “Inhibition by metabolites (Remaining Activity), FBP” value ([2]; 5 mM FBP, relative to the activity without addition (100%)) was 87.0 ± 0.1%.
For Nc1ncnc2c1ncn2[C@@H]1O[C@H](COP(=O)(O)OP(=O)(O)OP(=O)(O)O)[C@@H](O)[C@H]1O [ATP, Adenosine triphosphate], the percent remaining activity at 5000 µM ([1]; 5 mM ATP) was 68.8 ± 0.1% and the “Inhibition by metabolites (Remaining Activity), ATP” value ([2]; 5 mM ATP, relative to the activity without addition (100%)) was 86.0 ± 0.2%.
Work on NC(=O)c1ccc[n+]([C@@H]2O[C@H](COP(=O)(O)OP(=O)(O)OC[C@H]3O[C@@H](n4cnc5c(N)ncnc54)[C@H](OP(=O)(O)O)[C@@H]3O)[C@@H](O)[C@H]2O)c1 [NADP, Nicotinamide adenine dinucleotide phosphate] yielded a Km ([2]; read-out: KM, NADP) of 75 ± 4 µM.
In the case of C=C(OP(=O)(O)O)C(=O)O [PEP, Phosphoenolpyruvate], the inhibition at 5000 µM ([1]; 5 mM PEP, read-out: Inhibition by metabolites (Remaining Activity), PEP) is reported as 62.6 ± 0.1% and the “Inhibition by metabolites (Remaining Activity), PEP” value ([2]; 5 mM PEP, relative to the activity without addition (100%)) is reported as 72.5 ± 0.1%.
With NC(=O)C1=CN([C@@H]2O[C@H](COP(=O)(O)OP(=O)(O)OC[C@H]3O[C@@H](n4cnc5c(N)ncnc54)[C@H](OP(=O)(O)O)[C@@H]3O)[C@@H](O)[C@H]2O)C=CC1 [NADPH, Nicotinamide adenine dinucleotide phosphate] the “inhibition by NADPH” value ([2]; A243T compared with wild type enzyme, FIG. 10B) was “No significant difference”.
In the case of O=P(O)(O)OC[C@H]1OC(O)[C@H](O)[C@@H](O)[C@@H]1O (stereo partly shown) [G6P, Glucose 6-phosphate], the Km ([2]; read-out: KM, G6P) is reported as 481 ± 31 µM.
In the case of N [ammonium], the Km [3] is listed as 34000 µM.
